Test [1] concerns hereditary angioneurotic edema. The following applies: in vivo; cited from earlier work.
The subject of another test is complement system. The following applies: cited from earlier work.
The subject of test [2] is total hemolytic complement activity (human serum). Particulars: in vitro and in vivo, reduction in total hemolytic complement activity; cited from earlier work.
For test [3], the system named is late components of human complement (C3-C9). Briefly: Test, Code 035 (C3-C9 inhibitor): lysis of EAC 142 by late components of human complement. Particulars: well number in two-fold serial dilution assay; higher well number indicates higher activity. The class given is biochemical. The source says: An active inhibitor protects C2 from C1 and C4; (ii) Test, Code 035 (C3-C9 inhibitor) -- This test determines the ability of the late components of human complement (C3-C9) to lyse EAC 142 in the presence of appropriate dilutions of the test compound. An active inhibitor protects EAC 142 from lysis by human C3-C9; (iii) Test, Code 036 (C-Shunt inhibitor) -- In this test human erythrocytes rendered fragile are lysed in autologous serum via the shunt pathway activated by cobra venom factor in the presence of appropriate dilutions of the test compound. Inhibition of the shunt pathway results in failure of lysis; (iv) Forssman Vasculitis Test -- Here, the well known complement dependent lesion, Forssman vasculitis, is produced in guinea pigs by intradermal injection of rabbit anti-Forssman antiserum. […]

The next test has as its system whole complement. Briefly: Complement Level Reduction Test: serum whole complement of dosed guinea pigs by capillary tube assay. Particulars: guinea pig, vs simultaneous controls. Format: in vivo. From the text: An active inhibitor protects C2 from C1 and C4; (ii) Test, Code 035 (C3-C9 inhibitor) -- This test determines the ability of the late components of human complement (C3-C9) to lyse EAC 142 in the presence of appropriate dilutions of the test compound. An active inhibitor protects EAC 142 from lysis by human C3-C9; (iii) Test, Code 036 (C-Shunt inhibitor) -- In this test human erythrocytes rendered fragile are lysed in autologous serum via the shunt pathway activated by cobra venom factor in the presence of appropriate dilutions of the test compound. Inhibition of the shunt pathway results in failure of lysis; (iv) Forssman Vasculitis Test -- Here, the well known complement dependent lesion, Forssman vasculitis, is produced in guinea pigs by intradermal injection of rabbit anti-Forssman antiserum. The lesion is measured in terms of diameter, edema and hemorrhage and the extent to which a combined index of these is inhibited by prior intraperitoneal injection of the test compound at 200 mg/kg is then reported, unless otherwise stated; (v) Forssman Shock Test -- Lethal shock is produced in guinea pigs by an i.v. injection of anti-Forssman antiserum and the harmonic mean death time of treated guinea pigs is compared with that of simultaneous controls; (vi) Complement Level Reduction Test -- In this test, the above dosed guinea pigs, or others, are bled for serum and the complement level is determined in undiluted serum by the capillary tube method of U.S. Pat. No. 3,876,376 and compared to undosed control guinea pigs; and (vii) Cap 50 Test -- Here, appropriate amounts of the test compound are added to a pool of guinea pig serum in vitro, after which the undiluted serum capillary tube assay referred to above is run. The concentration of compound inhibiting 50% is reported.
With reference to Table I, guinea pigs weighing about 300 g were dosed intravenously (i.v.) or intraperitoneally (i.p.) with 200 mg/kg of the test compound dissolved in saline and adjusted to pH 7-8. […] The serum was tested for whole complement using the capillary tube assay. Percent inhibition was calculated by comparison with simultaneous controls. The results appear in Table I together with results of tests, code 026, 035, 036, Cap 50, % inhibition and Forssman shock.

Structures can show the parent of a compound that is named as a salt.

Take `NC[C@H]1CC[C@H](C(=O)O)CC1` [tranexamic acid]: the “use in treatment of hereditary angioneurotic edema” value (“use in treatment” for short) in test [1] is recorded as “used with success”.

With `NCCCCCC(=O)O` [epsilon-aminocaproic acid], in test [1], the “use in treatment” value was “used with success”.

Take `Nc1ccc2cc(S(=O)(=O)O)cc(O)c2c1N=Nc1ccc(NC(=O)Nc2ccc(N=Nc3c(N)ccc4cc(S(=O)(=O)O)cc(O)c34)c(S(=O)(=O)O)c2)cc1S(=O)(=O)O` [chlorazol fast pink, 3,3'-ureylenebis-[6-(2-amino-8-hydroxy-6-sulfo-1-naphthylazo)]benzenesulfonic acid, tetrasodium salt]: the “anticomplementary effect / complement inhibition” value in the test on complement system was “anticomplementary effect”.

pentosan-poly-sulfoester: the “anticomplementary activity on human serum” value in test [2] was “anticomplementary activity on human serum both in vitro and in vivo”.

As to heparin, the “anticomplementary effect / complement inhibition” value with complement system is on record as “anticomplementary effect”.

For the compound `O=S(=O)(O)c1cc(NC(=S)Nc2cc(NC(=S)Nc3cc(S(=O)(=O)O)cc4cc(S(=O)(=O)O)cc(S(=O)(=O)O)c34)cc(NC(=S)Nc3cc(S(=O)(=O)O)cc4cc(S(=O)(=O)O)cc(S(=O)(=O)O)c34)c2)c2c(S(=O)(=O)O)cc(S(=O)(=O)O)cc2c1` [8,8',8"-[s-Phenenyltris(2-thioureylene)]tri-1,3,6-naphthalenetrisulfonic acid nonasodium salt], the “C-Late 035 Wells” value in test [3] is “+1 Wells”. Moreover, the “% change in serum whole complement level” value is given as -81% with whole complement (200 mg/kg i.p., 30 mins.); -84% in the test on whole complement (200 mg/kg i.p., 60 mins.); -91% in the test on whole complement (200 mg/kg i.p., 120 mins.); -98% in the test with whole complement (200 mg/kg i.v., 2 mins.); -92% in the test on whole complement (200 mg/kg i.v., 30 mins.); -86% with whole complement (200 mg/kg i.v., 120 mins.).

For the compound `Cc1ccc(C(=O)Nc2ccc(S(=O)(=O)O)c3cc(S(=O)(=O)O)cc(S(=O)(=O)O)c23)cc1NC(=O)c1cccc(NC(=O)Nc2cccc(C(=O)Nc3cc(C(=O)Nc4ccc(S(=O)(=O)O)c5cc(S(=O)(=O)O)cc(S(=O)(=O)O)c45)ccc3C)c2)c1` [Suramin], the “use in treatment” value in test [1] was “used with success”. In the test with complement system, the “anticomplementary effect / complement inhibition” value is given as “competitive inhibitor of the complement system”.

(Values after patent publication US4107201A, “S-Phenenyltris(thioureylene)trinaphthalenetrisulfonic acid salts” (American Cyanamid Company, priority 1977, dated 1978).)
